Data from patent US9701680B2, “Pyrimidine and pyridine compounds and their usage” (HUTCHISON MEDIPHARMA LIMITED, priority 2013, dated 2017).
Where two headings read alike, the source gives them in different places.

Columns and labels:
[1] = system: KG-1; experiment: Cellular Proliferation Assay (Cell Counting Kit-8), KG-1; format: cell-based; settings: Homo sapiens; KG-1 cells, 72 hours; read-out: KG1 IC50
Experimental: (§1) Example 26: Cellular Proliferation Assay
(§2) • 1. Cell Line • KG-1 (ATCC Accession No. CCL-246), • SNU-16 (ATCC Accession No. CRL-5974), • RT-112 (ECACC Accession No. 85061106) • 2. Assay Protocol • FGFR related cancer cell proliferation is measured in 96-well plates using Cell Counting Kit-8 (Dojindo CK04-13). • Seed 30000 cells/well of KG1, 5000 cells/well of SNU16, and 1000 cells/well of RT112 in a volume of 100 μL/well in growth media. • After 24 hours, dilute the test compound to 10, 3.3, 1.1, 0.37, 0.12, 0.04, 0.013, 0.004 μM, keeping the DMSO concentration at 5%. • Add 10 μL of 8-point compound series to the wells of culturing cells. • Incubate at 37° C. and 5% CO2 for 72 hours • Add 10 μL/well of CCkit8 and incubate at 37° C. and 5% CO2 for an hour • Detect the optical density of each well at 450 nm on Labsystems Multiskan K3. • 3. Data Analysis
(§3) [formula] Note: • ODcompound well represents the optical density of cells treated with compound. • ODcell well represents the optical density of cells without compounds treatment.(only 0.5% DMSO) • ODcontrol well represents the optical density of culture media background • IC50: determined with add-in software for Microsoft Excel, XLfit™ (version 2.0) from ID Business Solutions (Guildford, UK).

[2] = system: SNU-16; experiment: Cellular Proliferation Assay (Cell Counting Kit-8), SNU-16; format: cell-based; settings: Homo sapiens; SNU-16 cells, 72 hours
Experimental: as §1, §2, §3

[3] = biological target: Recombinant human FGFR2 (Homo sapiens, UniProt P21802); experiment: Transcreener Kinase Assay of FGFR2; format: biochemical
Experimental: Example 24: Transcreener Kinase Assay of FGFR2
• 1. […] Prepare Solution • Test compounds were solved in DMSO and were diluted with assay buffer to 5 folds of final concentration keeping the DMSO concentration at 5%. Further dilution are needed to make final concentrations are at 1, 0.33, 0.11, 0.037, 0.012, 0.004, 0.0014, 0.0005 μM; (the final concentration of DMSO is 1%). • Enzyme/Substrate stock Preparation: Recombinant human FGFR2 and Poly E4Y are both diluted in assay buffer. The final concentration is 0.3 ng/μL for FGFR2 and 62.5 ng/μL for Poly E4Y. The mixture is being kept in ice before use; • Prepare ATP Diluents, 10 mM ATP is diluted in assay buffer, the final concentration is 25 μM; • Prepare ADP Diluents: diluted ADP (500 μM) in assay buffer, the final concentration is 25 μM; • Prepare ATP standard curve stock as following:
• 3. Enzymatic Reaction • In a 96-well plate, add 5 μL of deluted solution of test compound or control solution. (positive control: 5 μL of 5% DMSO; negative control: 5 μL of 500 mM EDTA) into desired wells respectively; • Add 10 μL of Enzyme/Substrate stock into each well; • Add 10 μL of ATP Diluents to initiate the enzyme reaction and vortex the plate immediately on a plate shaker; • For the wells to make standard curve, add 5 μL of 5% DMSO, 10 μL of assay buffer and 10 μL of ATP standard curve stock. • Incubate the plate for 45 min at 28° C. on a plate shaker in a low speed. • 4. Stoping Reaction and Detecting ADP • Detection Mix Preparation: The mixture is made by dilution with MilliQ water; as following: ADP Alexa633 tracer (1:100), ADP antibody (1:158), and stop & detect buffer (1:10); • Tracer Only control Preparation: The mixture is made by dilution with MilliQ water; as following: ADP Alexa633 tracer (1:100), and stop & detect buffer (1: 10) • No Tracer control Preparation: stop & detect buffer is diluted with MilliQ water; by 10 fold. • Add 25 μL of detection mix, Tracer Only control and No Tracer control into corresponding wells, respectively; • Incubate at 28° C. for 1 h, on a plate shaker in a low speed; • Measure florescence polarization (mP) on TECAN F500. Excitation wavelength: 610 nm, Emission wavelength: 670 nm. • 5. Data Analysis
(§4) [formula] Note: • [ADP] in Compound well represents the ADP concentration in test compound well. • [ADP] in Positive control well represents the ADP concentration in 5% DMSO well • Conversion of mP value to ADP concentration is calculated based on the formula which determined by standard curve. And mP value is measured by following the instruction provided by BellBrook Labs. (www.bellbrooklabs.com). • 6. IC50: determined with add-in software for Microsoft Excel, XLfit™ (version 2.0) from ID Business Solutions (Guildford, UK).

[4] = biological target: FGFR3 kinase (Homo sapiens, UniProt P22607); experiment: Z-Lyte Kinase Assay of FGFR3; format: biochemical
Experimental: Example 25: Z-Lyte Kinase Assay of FGFR3
• 1. Materials and Reagents:
• 2. Reaction Steps: Plate Map
• 3. […] The final concentrations are 1, 0.33, 0.11, 0.037, 0.012, 0.004, 0.0014, 0.00046 μM, and the final concentration of DMSO is 2%. • 3) Kinase/Peptide Mixture (P/K solution): Prepare Kinase/Peptide Mixture by diluting the kinase to 0.7 μg/ml and the Z-LYTE™ Tyr 4 peptide to 4 μM in 1.33× Kinase Buffer. Mix gently by pipetting. • 4) Phospho-peptide Solution (PP solution): Add 0.4 μl of Z-LYTE™ Tyr 4 Phospho-peptide to 99.6 μl of 1.33× Kinase Buffer. • 5) ATP Solution: Prepare ATP Solution by diluting the 10 mM of ATP in 1.33× Kinase Buffer to 300 uM. • 6) Development Solution: Dilute Development Reagent B with Development Buffer as 1:128. • 4. […] Shake the plate for 30 Sec and centrifuge (1500 rpm, 1 min). • Seal the plate to protect from the light and incubate the plate for 1 hour at RT (25-30° C.). • 2) Development reaction • Add 5 μl of the Development solution to all wells. • Shake the plate for 30 Sec and centrifuge (1500 rpm, 1 min). • Seal the plate to protect from the light and incubate the plate for 1 hour at RT (25-30° C.). • 3) Stop and Read • Add 5 μl of the Stop reagent to all wells. • Shake the plate for 30 Sec and centrifuge (1500 rpm, 1 min). • Measure the value of Coumarin (Ex400 nm, Em445 nm) and fluorescein (Ex400 nm, Em520 nm), respectively. • 5. Data Analysis Emission Ratio(ER)=Coumarin Emission (445 nm)/Fluorescein Emission (520 nm) % Phosphorylation=1−[ER×C3520nm-C3445nm]/[(C1445nm-C3445nm)+ER×(C3520nm−C1520nm)] Inhibition rate (IR)=1−% Photest Cpd/% PhoC2 • 6. IC50 Value: determined with add-in software for Microsoft Excel, XLfit™ (version 2.0) from ID Business Solutions (Guildford, UK)

[5] = biological target: Recombinant human FGFR1 (Homo sapiens, UniProt P11362); experiment: Transcreener Kinase Assay of FGFR1; format: biochemical
Experimental: • 1. […] Prepare Solution • Test compounds were solved in DMSO and were diluted with assay buffer to 5 folds of final concentration keeping the DMSO concentration at 5%. Further dilution are needed to make final concentrations are at 1, 0.33, 0.11, 0.037, 0.012, 0.004, 0.0014, 0.0005 μM; (the final concentration of DMSO is 1%). • Enzyme/Substrate stock Preparation: Recombinant human FGFR1 and Poly E4Y are both diluted in assay buffer.
• 3. Enzymatic Reaction • In a 96-well plate, add 5 μL of diluted solution of test compound or control solution. (positive control: 5 μL of 5% DMSO; negative control: 5 μL of 500 mM EDTA) into desired wells respectively; • Add 10 μL of Enzyme/Substrate stock into each well; • Add 10 μL of ATP Diluents to initiate the enzyme reaction and vortex the plate immediately on a plate shaker; • For the wells to make standard curve, add 5 μL of 5% DMSO, 10 μL of assay buffer and 10 μL of ATP standard curve stock. • Incubate the plate for 45 min at 28° C. on a plate shaker in a low speed. • 4. […] Excitation wavelength: 610 nm, Emission wavelength: 670 nm. • 5. Data Analysis
as §4

[6] = system: RT-112; experiment: Cellular Proliferation Assay (Cell Counting Kit-8), RT-112; format: cell-based; settings: Homo sapiens; RT-112 cells, 72 hours
Experimental: as §1, §2, §3

Recombinant human FGFR2, sequence (P21802 22-821): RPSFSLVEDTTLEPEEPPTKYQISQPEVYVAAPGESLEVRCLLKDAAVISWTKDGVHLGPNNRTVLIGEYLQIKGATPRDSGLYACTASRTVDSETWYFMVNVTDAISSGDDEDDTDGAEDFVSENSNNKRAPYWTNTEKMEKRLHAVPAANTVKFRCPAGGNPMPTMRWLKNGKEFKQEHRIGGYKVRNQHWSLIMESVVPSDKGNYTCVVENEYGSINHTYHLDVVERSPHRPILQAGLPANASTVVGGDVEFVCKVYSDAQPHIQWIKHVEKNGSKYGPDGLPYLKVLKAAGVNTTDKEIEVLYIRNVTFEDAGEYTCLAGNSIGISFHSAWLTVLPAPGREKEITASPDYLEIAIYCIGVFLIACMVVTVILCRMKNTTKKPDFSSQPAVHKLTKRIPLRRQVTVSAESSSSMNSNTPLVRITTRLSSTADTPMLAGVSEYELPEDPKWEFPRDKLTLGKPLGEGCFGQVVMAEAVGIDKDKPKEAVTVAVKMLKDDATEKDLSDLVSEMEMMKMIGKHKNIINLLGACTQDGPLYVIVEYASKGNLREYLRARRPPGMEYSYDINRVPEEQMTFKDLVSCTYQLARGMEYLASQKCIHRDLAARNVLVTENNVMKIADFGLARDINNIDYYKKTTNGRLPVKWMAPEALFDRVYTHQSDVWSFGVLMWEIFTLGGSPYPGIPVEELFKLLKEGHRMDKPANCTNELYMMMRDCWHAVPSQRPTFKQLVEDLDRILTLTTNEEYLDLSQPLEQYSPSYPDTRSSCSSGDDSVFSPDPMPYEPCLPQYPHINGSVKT
Recombinant human FGFR1, sequence (P11362 22-822): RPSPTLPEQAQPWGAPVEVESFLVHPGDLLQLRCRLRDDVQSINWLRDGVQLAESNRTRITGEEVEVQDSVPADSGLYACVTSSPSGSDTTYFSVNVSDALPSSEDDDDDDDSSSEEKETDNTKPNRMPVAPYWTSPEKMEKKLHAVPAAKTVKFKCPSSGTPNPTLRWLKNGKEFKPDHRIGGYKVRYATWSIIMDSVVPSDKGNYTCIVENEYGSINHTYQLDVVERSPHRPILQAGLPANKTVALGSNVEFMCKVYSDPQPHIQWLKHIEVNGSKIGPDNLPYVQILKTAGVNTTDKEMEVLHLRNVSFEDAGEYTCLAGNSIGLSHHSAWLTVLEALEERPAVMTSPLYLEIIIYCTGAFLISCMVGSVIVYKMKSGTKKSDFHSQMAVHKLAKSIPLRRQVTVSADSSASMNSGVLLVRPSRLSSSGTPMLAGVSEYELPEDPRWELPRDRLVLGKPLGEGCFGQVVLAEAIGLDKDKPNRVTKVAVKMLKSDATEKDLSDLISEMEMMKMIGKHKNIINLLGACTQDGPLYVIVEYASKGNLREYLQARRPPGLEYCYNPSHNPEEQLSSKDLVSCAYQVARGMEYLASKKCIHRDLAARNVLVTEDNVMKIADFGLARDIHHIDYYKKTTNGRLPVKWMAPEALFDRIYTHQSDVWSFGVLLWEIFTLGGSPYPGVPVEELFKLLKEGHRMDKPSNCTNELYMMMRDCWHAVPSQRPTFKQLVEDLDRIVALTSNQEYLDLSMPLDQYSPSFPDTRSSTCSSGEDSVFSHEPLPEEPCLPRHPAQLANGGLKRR
FGFR3 kinase, sequence (P22607 23-806): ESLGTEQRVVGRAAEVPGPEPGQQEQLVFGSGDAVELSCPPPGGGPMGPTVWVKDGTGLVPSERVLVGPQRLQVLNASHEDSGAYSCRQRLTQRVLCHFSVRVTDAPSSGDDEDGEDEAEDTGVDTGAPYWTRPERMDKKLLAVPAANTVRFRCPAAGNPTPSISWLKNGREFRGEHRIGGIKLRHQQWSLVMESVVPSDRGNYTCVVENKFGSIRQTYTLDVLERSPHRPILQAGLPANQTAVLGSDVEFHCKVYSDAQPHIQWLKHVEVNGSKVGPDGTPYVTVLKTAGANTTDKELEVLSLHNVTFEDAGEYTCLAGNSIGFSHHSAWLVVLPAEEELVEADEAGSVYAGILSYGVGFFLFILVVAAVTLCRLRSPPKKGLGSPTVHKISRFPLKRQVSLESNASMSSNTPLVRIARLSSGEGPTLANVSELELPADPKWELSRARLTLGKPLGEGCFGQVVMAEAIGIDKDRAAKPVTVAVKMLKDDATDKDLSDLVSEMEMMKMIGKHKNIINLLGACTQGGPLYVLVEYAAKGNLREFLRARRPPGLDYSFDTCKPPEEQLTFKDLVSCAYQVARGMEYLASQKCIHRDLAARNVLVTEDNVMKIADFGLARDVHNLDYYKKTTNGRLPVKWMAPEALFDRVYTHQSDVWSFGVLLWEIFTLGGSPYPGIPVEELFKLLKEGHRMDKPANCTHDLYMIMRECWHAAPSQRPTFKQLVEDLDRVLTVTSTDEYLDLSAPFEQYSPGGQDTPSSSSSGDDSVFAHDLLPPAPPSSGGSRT

Compound: CCN1[C@H](C)CN(c2ccc(Nc3ncc(CCc4cc(C(=O)NC)cc(OC)c4Cl)cn3)cn2)C[C@@H]1C [Compound 159]
- IC50 [1]: 26 nM
- IC50 [2]: 6 nM
- IC50 ([3]; read-out: FGFR2 (FP) IC50): 11 nM
- IC50 [4]: 10 nM
- IC50 ([5]; read-out: FGFR1 (FP) IC50): 23 nM
- IC50 [6]: 21 nM

Compound: CNC(=O)c1cc(COc2cnc(Nc3cccc(-n4nccn4)c3)nc2)c(Cl)c(OC)c1 [Compound 232]
- IC50 [1]: 70 nM
- IC50 [2]: 60 nM
- IC50 ([3]; read-out: FGFR2 (FP) IC50): 9 nM
- IC50 [4]: 228 nM
- IC50 ([5]; read-out: FGFR1 (FP) IC50): 17 nM
- IC50 [6]: 107 nM

Compound: CCN1CCC(c2ccc(Nc3ncc(OCc4cc(C(=O)NC)cc(OC)c4F)cn3)cc2OC)CC1 [Compound 280]
- IC50 [1]: 191 nM
- IC50 [2]: 7 nM
- IC50 ([3]; FP): 18 nM
- IC50 ([4]; Z-lyte): 16 nM
- IC50 ([5]; FP): 27 nM
- IC50 [6]: 29 nM

Compound: CNC(=O)c1cc(COc2cnc(Nc3ccc4c(c3)NC(=O)C4(C)C)nc2)c(F)c(OC)c1 [Compound 230]
- IC50 [1]: 76 nM
- IC50 [2]: 14 nM
- IC50 ([3]; read-out: FGFR2 (FP) IC50): 32 nM
- IC50 [4]: 45 nM
- IC50 ([5]; read-out: FGFR1 (FP) IC50): 101 nM
- IC50 [6]: 26 nM

Compound: CNC(=O)c1cc(COc2cnc(Nc3ccc(O[C@@H]4O[C@H](CO)[C@@H](O)[C@H](O)[C@H]4O)cc3)nc2)c(Cl)c(OC)c1 [Compound 303]
- IC50 [1]: 40 nM
- IC50 [2]: 23 nM
- IC50 ([3]; FP): 7 nM
- IC50 ([4]; Z-lyte): 7 nM
- IC50 ([5]; FP): 11 nM
- IC50 [6]: 64 nM

Compound: CNC(=O)c1cc(COc2cnc(Nc3cnn(C[C@H]4COC(C)(C)O4)c3)nc2)c(F)c(OC)c1 [Compound 249]
- IC50 [1]: 27 nM
- IC50 [2]: 10 nM
- IC50 ([3]; read-out: FGFR2 (FP) IC50): 14 nM
- IC50 [4]: 15 nM
- IC50 ([5]; read-out: FGFR1 (FP) IC50): 38 nM
- IC50 [6]: 30 nM

Compound: CNC(=O)c1cc(COc2cnc(Nc3ccc(N4C[C@@H](C)N(C)[C@@H](C)C4)cc3)nc2)c(Cl)c(OC)c1 [Compound 286]
- IC50 [1]: 8 nM
- IC50 [2]: 16 nM
- IC50 ([3]; FP): 6 nM
- IC50 ([4]; Z-lyte): 9 nM
- IC50 ([5]; FP): 7 nM
- IC50 [6]: 43 nM

Compound: CNC(=O)c1cc(COc2cnc(Nc3ccc(-n4ccnn4)cc3)nc2)c(F)c(OC)c1 [Compound 222]
- IC50 [1]: 52 nM
- IC50 [2]: 34 nM
- IC50 ([3]; read-out: FGFR2 (FP) IC50): 12 nM
- IC50 [4]: 40 nM
- IC50 ([5]; read-out: FGFR1 (FP) IC50): 39 nM
- IC50 [6]: 83 nM

Compound: CNC(=O)c1cc(OC)c(Cl)c(COc2cnc(Nc3ccc(N4C[C@@H](C)N[C@@H](C)C4)c(F)c3)nc2)c1F [Compound 299]
- IC50 [1]: 7 nM
- IC50 [2]: 11 nM
- IC50 ([3]; FP): 6 nM
- IC50 ([4]; Z-lyte): 8 nM
- IC50 ([5]; FP): 6 nM
- IC50 [6]: 15 nM

Compound: CCCN1CC(c2ccc(Nc3ncc(OCc4cc(C(=O)NC)cc(OC)c4F)cn3)cc2)C1 [Compound 240]
- IC50 [1]: 23 nM
- IC50 [2]: 39 nM
- IC50 ([3]; read-out: FGFR2 (FP) IC50): 23 nM
- IC50 [4]: 23 nM
- IC50 ([5]; read-out: FGFR1 (FP) IC50): 34 nM
- IC50 [6]: 56 nM

Compound: CNC(=O)c1cc(COc2cnc(Nc3ccc4c(c3)NCC4)nc2)c(F)c(OC)c1 [Compound 214]
- IC50 [1]: 6 nM
- IC50 [2]: 27 nM
- IC50 ([3]; read-out: FGFR2 (FP) IC50): 25 nM
- IC50 [4]: 19 nM
- IC50 ([5]; read-out: FGFR1 (FP) IC50): 67 nM
- IC50 [6]: 90 nM

Compound: CNC(=O)c1cc(CCc2cnc(Nc3ccc(N4C[C@@H](C)N[C@@H](C)C4)c(OC)c3)nc2)c(F)c(OC)c1 [Compound 156]
- IC50 [1]: 218 nM
- IC50 [2]: 9 nM
- IC50 ([3]; read-out: FGFR2 (FP) IC50): 6 nM
- IC50 [4]: 6 nM
- IC50 ([5]; read-out: FGFR1 (FP) IC50): 14 nM
- IC50 [6]: 13 nM
